{
  "source": "paper PMC6934184",
  "about": "“Selective DNA-PKcs inhibition extends the therapeutic index of localized radiotherapy and chemotherapy” (The Journal of Clinical Investigation, 2019)",
  "biological_target": "T1, ZAP70 (Homo sapiens, UniProt P43403)",
  "T1 construct": "purchased Thermo Fisher Scientific (Life Technologies) SelectScreen",
  "T1 sequence (P43403 whole entry)": "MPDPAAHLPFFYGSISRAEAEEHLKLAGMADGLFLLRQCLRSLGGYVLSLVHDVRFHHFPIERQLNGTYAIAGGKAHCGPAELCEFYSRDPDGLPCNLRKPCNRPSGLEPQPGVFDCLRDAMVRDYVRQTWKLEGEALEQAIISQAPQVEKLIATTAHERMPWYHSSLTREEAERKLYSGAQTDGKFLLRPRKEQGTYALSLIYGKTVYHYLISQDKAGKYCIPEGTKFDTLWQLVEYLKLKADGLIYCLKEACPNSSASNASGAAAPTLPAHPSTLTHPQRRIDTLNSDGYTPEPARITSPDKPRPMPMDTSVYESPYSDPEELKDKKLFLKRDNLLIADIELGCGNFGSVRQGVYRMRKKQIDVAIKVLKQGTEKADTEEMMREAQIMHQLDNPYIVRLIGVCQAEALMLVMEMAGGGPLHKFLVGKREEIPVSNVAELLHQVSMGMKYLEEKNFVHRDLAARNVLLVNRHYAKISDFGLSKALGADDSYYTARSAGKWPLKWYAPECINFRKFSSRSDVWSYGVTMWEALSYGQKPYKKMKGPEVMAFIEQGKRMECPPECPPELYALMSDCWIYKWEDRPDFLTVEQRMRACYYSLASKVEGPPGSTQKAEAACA",
  "experiment": "SelectScreen Z'LYTE",
  "assay_type": "biochemical",
  "in_short": "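Compound tested in SelectScreen activity assays, Z'LYTE for CSF1R, CDK1/cyclin B and MAP2K6 and Adapta for CAMK1. ATP for CAMK1 was listed as 10, and Km app was used for CSF1R. Results are expressed in percent.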",
  "data": [
    {"molecule": "CN(C(=O)CN1CCOCC1)c1ccc2sc3c(-c4cccc5c(=O)cc(N6CC7CCC(C6)O7)oc45)cccc3c2c1", "note": "[NU5455]", "values": [
      {"measurement": "inhibition at 1 µM", "result": 0.3, "unit": "%"}
    ]}
  ]
}
